Source: EP1247803A2, “Indolinone compounds suitable for modulation of protein kinases” (Sugen, Inc., priority 1996, dated 1998)

What was measured:
FLK-1 receptor = target: T1, FLK-1 receptor (Mus musculus, UniProt P35918); assay: FLK-1 ELISA (kinase activity of the FLK-1 receptor in FLK-1/NIH3T3 cells, VEGF stimulated); format: cell-based; set-up: concentration or dose not given beside the values
T1 construct: expressed in transfected cells; host or cells: NIH3T3 C7#3
How it was run: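 FLK-1-expressing NIH3T3 C7#3 cells, starved overnight in 0.1% FBS medium, were treated with compounds at a 1:200 final dilution (0.5% DMSO) for 2 h at 37 °C, with VEGF stimulation. FLK-1 kinase activity was read by ELISA on anti-rabbit IgG plates using affinity-purified anti-FLK-1 antiserum.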

PDGF-R = PDGF-R (Homo sapiens, UniProt P09619); assay: PDGF-R ELISA; format: cell-based
Sequence of PDGF-R (P09619 33-1106, species assumed): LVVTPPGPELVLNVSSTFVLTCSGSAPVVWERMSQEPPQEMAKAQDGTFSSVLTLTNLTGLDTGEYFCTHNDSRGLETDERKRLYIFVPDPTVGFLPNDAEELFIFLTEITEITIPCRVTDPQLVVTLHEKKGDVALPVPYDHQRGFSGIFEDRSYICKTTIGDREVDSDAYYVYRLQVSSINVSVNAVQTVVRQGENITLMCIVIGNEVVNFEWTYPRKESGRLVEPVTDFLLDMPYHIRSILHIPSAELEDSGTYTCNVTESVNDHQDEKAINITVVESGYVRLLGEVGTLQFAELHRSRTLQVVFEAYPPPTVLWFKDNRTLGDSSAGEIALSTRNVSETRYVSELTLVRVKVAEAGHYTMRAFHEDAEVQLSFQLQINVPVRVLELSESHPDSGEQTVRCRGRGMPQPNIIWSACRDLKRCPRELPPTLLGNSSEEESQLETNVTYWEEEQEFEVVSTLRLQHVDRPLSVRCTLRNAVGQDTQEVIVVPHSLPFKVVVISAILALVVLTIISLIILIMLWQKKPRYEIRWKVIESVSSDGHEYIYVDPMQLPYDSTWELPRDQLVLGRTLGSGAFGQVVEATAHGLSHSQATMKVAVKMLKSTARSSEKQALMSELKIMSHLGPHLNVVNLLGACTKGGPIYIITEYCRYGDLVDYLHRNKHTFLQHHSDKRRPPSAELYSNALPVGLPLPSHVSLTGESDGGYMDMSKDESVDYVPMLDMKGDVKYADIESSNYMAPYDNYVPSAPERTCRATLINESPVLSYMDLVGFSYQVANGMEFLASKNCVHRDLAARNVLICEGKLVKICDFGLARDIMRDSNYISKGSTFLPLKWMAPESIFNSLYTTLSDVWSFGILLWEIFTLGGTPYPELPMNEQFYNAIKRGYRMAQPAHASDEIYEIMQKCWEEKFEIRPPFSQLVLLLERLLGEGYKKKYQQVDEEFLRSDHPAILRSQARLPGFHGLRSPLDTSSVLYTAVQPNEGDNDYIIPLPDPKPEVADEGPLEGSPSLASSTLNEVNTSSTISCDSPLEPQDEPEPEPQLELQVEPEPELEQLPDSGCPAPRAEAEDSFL
Text: A PDGF-R ELISA is described in International Patent Publication No. WO 96/40116, published December 19, 1996 by Tang et al.

MET = MET biochemical kinase assay; set-up: species or system human; concentration or dose not given beside the values
How it was run: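 In this format, tyrosine phosphorylation of plate-captured human MET is followed in vitro after compound addition in ATP/divalent-cation buffer, detected by anti-phosphotyrosine-HRP with TMB substrate.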

T1 sequence (P35918 20-1345): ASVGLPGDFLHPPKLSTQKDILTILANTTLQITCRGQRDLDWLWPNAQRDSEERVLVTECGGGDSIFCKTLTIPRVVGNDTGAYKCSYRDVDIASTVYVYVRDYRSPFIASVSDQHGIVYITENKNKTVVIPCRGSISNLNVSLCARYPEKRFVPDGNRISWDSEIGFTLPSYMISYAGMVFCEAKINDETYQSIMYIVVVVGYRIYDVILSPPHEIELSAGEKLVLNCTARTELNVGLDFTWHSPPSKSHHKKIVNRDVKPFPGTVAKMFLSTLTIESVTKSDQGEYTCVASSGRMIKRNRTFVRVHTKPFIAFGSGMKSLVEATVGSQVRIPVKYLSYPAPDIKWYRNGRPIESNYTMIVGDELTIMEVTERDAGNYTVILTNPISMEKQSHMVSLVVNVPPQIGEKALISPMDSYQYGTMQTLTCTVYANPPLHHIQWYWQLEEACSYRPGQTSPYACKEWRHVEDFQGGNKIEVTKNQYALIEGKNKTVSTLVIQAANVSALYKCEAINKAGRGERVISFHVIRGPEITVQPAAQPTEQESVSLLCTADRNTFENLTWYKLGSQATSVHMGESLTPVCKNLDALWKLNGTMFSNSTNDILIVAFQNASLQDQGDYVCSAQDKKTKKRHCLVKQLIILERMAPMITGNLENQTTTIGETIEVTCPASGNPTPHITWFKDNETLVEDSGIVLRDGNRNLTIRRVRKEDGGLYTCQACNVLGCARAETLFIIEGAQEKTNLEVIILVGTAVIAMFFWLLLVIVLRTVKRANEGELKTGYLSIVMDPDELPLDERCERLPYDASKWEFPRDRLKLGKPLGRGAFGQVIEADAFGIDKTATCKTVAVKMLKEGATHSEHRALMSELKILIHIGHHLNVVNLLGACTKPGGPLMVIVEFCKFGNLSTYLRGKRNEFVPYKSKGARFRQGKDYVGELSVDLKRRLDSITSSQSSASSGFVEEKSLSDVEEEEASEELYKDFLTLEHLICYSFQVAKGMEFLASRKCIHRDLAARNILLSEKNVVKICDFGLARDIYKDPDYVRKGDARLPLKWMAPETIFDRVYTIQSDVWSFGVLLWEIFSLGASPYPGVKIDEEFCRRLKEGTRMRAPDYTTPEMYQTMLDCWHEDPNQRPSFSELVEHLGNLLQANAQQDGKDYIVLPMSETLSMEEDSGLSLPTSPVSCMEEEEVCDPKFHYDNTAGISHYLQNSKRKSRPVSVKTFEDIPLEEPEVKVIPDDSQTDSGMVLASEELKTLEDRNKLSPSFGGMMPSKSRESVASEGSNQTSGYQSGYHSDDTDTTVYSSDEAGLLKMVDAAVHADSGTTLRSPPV

Row | Compound | Fik Kinase %Inhibition (FLK-1 receptor) [%] | PDGF Kinase %Inhibition (PDGF-R) [%] | Met Kinase % Inhibition (MET) [%]
1 | O=C1Nc2ccc(CCCl)cc2C1=CC1C=CCCC1 (stereo not drawn) [10729/G11] | -0.5 | 3.8 | 15.4
2 | Cc1c(Br)ccc2c1C(=Cc1coc3c(Br)cc(Br)cc3c1=O)C(=O)N2 [10730/C09] | 14.0 | 18.1 | 42.9
3 | CNS(=O)(=O)c1ccc2c(c1)C(=Cc1coc3c(Br)cc(Br)cc3c1=O)C(=O)N2 [10730/D09] | 9.8 | -1.6 | 59.1
4 | COc1cc(C=C2C(=O)Nc3ccc(S(=O)(=O)Nc4ccc(C(F)(F)F)cc4)cc32)cc(OC)c1OC [10730/E04] | 22.1 | 18.6 | 35.2
5 | CC(=O)n1cc(C=C2C(=O)Nc3ccc(Br)c(C)c32)c2ccccc21 [10730/C05] | 11.4 | 8.5 | 46.1
6 | CNS(=O)(=O)c1ccc2c(c1)C(=Cc1cc3ccccc3nc1Cl)C(=O)N2 [10730/D08] | 8.6 | 12.9 | -13.6
7 | CNS(=O)(=O)c1ccc2c(c1)C(=Cc1coc3ccc(Cl)cc3c1=O)C(=O)N2 [10730/D06] | 5.8 | -2.0 | 55.9
8 | O=C1Nc2ccc(I)cc2C1=Cc1coc2c(Br)cc(Br)cc2c1=O [10730/B09] | 9.4 | 15.1 | 70.6
9 | Cc1cc(C=C2C(=O)Nc3ccc(S(=O)(=O)Nc4ccc(C(F)(F)F)cc4)cc32)oc1C [10730/E11] | 29.1 | 31.7 | 77.2
10 | O=C1Nc2ccc(CCCl)cc2C1=Cc1ccccn1 [10729/G07] | -2.5 | 14.4 | 38.2
11 | O=C1Nc2c(Br)cc(Br)cc2C1=Cc1cc2ccccc2nc1Cl [10730/A08] | -2.9 | -6.0 | 69.0
12 | O=C1Nc2ccc(S(=O)(=O)Nc3ccc(C(F)(F)F)cc3)cc2C1=CC1C=CCCC1 (stereo not drawn) [10729/E11] | 70.9 | 22.4 | 50.8
13 | O=C1Nc2ccc(CCCl)cc2C1=Cc1ccncc1 [10729/G09] | -3.3 | 1.9 | 49.6
14 | COc1cc(C=C2C(=O)Nc3ccc(I)cc32)cc(OC)c1OC [10730/B04] | 12.8 | 7.2 | 73.2
15 | COc1ccc(C=C2C(=O)Nc3c(Br)cc(Br)cc32)c(OC)c1OC [10730/A02] | -3.7 | -23.1 | 39.5
16 | COc1cc(OC)c(OC)cc1C=C1C(=O)Nc2ccc(Br)c(C)c21 [10730/C03] | 25.5 | 36.5 | 43.2
17 | O=C1Nc2ccc(S(=O)(=O)Nc3ccc(C(F)(F)F)cc3)cc2C1=Cc1coc2c(Br)cc(Br)cc2c1=O [10730/E09] | 21.8 | 20.3 | 33.9
18 | COc1ccc(C=C2C(=O)Nc3ccc(I)cc32)c(OC)c1OC [10730/B02] | 5.0 | 5.4 | 66.3
19 | CC(=O)n1cc(C=C2C(=O)Nc3ccc(S(=O)(=O)Nc4ccc(C(F)(F)F)cc4)cc32)c2ccccc21 [10730/E05] | 8.7 | 28.7 | 49.0
20 | Cc1ccsc1C=C1C(=O)Nc2ccc(CCCl)cc21 [10729/G05] | 8.7 | 9.9 | 22.6
21 | COC1CC(C=C2C(=O)Nc3ccc(Br)c(C)c32)C(OC)O1 (stereo not drawn) [10730/C10] | 15.4 | 44.4 | 40.3
22 | O=C1Nc2ccc(S(=O)(=O)Nc3ccc(C(F)(F)F)cc3)cc2C1=Cc1ccncc1 [10729/E09] | 6.9 | -11.7 | 85.0
23 | COc1ccc(C=C2C(=O)Nc3ccc(S(=O)(=O)Nc4ccc(C(F)(F)F)cc4)cc32)c(OC)c1OC [10730/E02] | 24.8 | 16.4 | 18.8
24 | O=C1Nc2ccc(S(=O)(=O)N3CCOCC3)cc2C1=Cc1ccc(-c2ccccc2Cl)o1 [10730/F07] | 67.5 | -2.0 | 60.7
